This note sets out measurements from patent US8637537B2, “Serine/threonine kinase inhibitors” (Genentech, Inc., priority 2011, dated 2014).

This assay deals with T1, human recombinant GST-PAK1-KD protein (Homo sapiens, UniProt Q13153).
T1 construct: residues #249-545 of human PAK1, UniProtKP/Swiss Q13153; His6 (N); made in house; host or cells: Sf9 insect cells, pAcGP67 baculovirus expression vector
Kind of assay: GST-PAK1-KD (kinase domain) biochemical assay, microfluidic mobility shift.

Setting [1] is: Table II, PAK1 Ki class, read-out: Ki.

Where two headings read alike, the source gives them in different places.

T1 sequence (Q13153 249-545): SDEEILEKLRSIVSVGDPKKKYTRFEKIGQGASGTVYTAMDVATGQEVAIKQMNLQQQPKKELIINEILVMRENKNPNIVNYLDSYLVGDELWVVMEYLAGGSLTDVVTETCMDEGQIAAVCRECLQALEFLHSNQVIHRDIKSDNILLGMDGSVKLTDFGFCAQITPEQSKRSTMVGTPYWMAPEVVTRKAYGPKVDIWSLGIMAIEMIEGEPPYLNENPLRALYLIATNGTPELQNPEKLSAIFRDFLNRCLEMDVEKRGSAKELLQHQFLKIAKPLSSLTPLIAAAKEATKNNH

One may read the Ki as a dissociation constant, usually derived from enzyme kinetics or from competition with a known ligand. Take `CN(Cc1cc(Cl)cc2[nH]cnc12)c1nccc(Nc2cc(C3CC3)[nH]n2)n1` [II-14, N^2-((6-Chloro-1H-benzo[d]imidazol-4-yl)methyl)-N^4-(5-cyclopropyl-1H-pyrazol-3-yl)-N^2-methylpyrimidine-2,4-diamine]: the Ki under setting [1] was under 50 nM.

As to `Cc1cc2c(CNc3nccc(Nc4cc(C5CC5)[nH]n4)n3)cccc2[nH]1` [II-15, N^4-(5-Cyclopropyl-1H-pyrazol-3-yl)-N^2-((2-methyl-1H-indol-4-yl)methyl)pyrimidine-2,4-diamine], the Ki under setting [1] is under 50 nM. Same read-out and setting: the same measure for `Cc1nc2c(CNc3nccc(Nc4cc(C5CC5)[nH]n4)n3)cc(Cl)cc2[nH]1` [II-17, N^2-((6-Chloro-2-methyl-1H-benzo[d]imidazol-4-yl)methyl)-N^4-(5-cyclopropyl-1H-pyrazol-3-yl)pyrimidine-2,4-diamine]: under 50 nM. As to `C[C@H](Nc1nccc(Nc2cc(C3CC3)[nH]n2)n1)c1cc(F)cc2[nH]cnc12` [II-18, (S)-N^4-(5-cyclopropyl-1H-pyrazol-3-yl)-N^2-(1-(6-fluoro-1H-benzo[d]imidazol-4-yl)ethyl)pyrimidine-2,4-diamine], the Ki under setting [1] is under 50 nM.

Consider `Cc1n[nH]c2cccc(CN(C)c3nccc(Nc4cc(C5CC5)[nH]n4)n3)c12` [II-19, N^4-(5-Cyclopropyl-1H-pyrazol-3-yl)-N^2-methyl-N^2-((3-methyl-1H-indazol-4-yl)methyl)pyrimidine-2,4-diamine], for which the Ki under setting [1] is under 50 nM.

With `Fc1ccc2[nH]ccc2c1CNc1nccc(Nc2cc(C3CC3)[nH]n2)n1` [II-20, N^4-(5-cyclopropyl-1H-pyrazol-3-yl)-N^2-((5-fluoro-1H-indol-4-yl)methyl)pyrimidine-2,4-diamine], under setting [1], the Ki is under 50 nM. Same read-out and setting: next, `C[C@@H](Oc1cc(Nc2ccnc(N(C)Cc3ccc4[nH]cnc4c3Cl)n2)n[nH]1)c1ccccc1` [II-21, (R)-N^2-((4-Chloro-1H-benzo[d]imidazol-5-yl)methyl)-N^2-methyl-N^4-(5-(1-phenylethoxy)-1H-pyrazol-3-yl)pyrimidine-2,4-diamine]: under 50 nM. `COc1n[nH]c2cccc(CNc3nccc(Nc4cc(C5CC5)[nH]n4)n3)c12` [II-22, N^4-(5-Cyclopropyl-1H-pyrazol-3-yl)-N^2-((3-methoxy-1H-indazol-4-yl)methyl)pyrimidine-2,4-diamine]: under setting [1], the Ki is under 50 nM. Still for that read-out and setting: the same measure for `Cc1cc(CNc2ncc(F)c(Nc3cc(C4CC4)[nH]n3)n2)c2cn[nH]c2c1` [II-25, N^4-(5-Cyclopropyl-1H-pyrazol-3-yl)-5-fluoro-N^2-((6-methyl-1H-indazol-4-yl)methyl)-pyrimidine-2,4-diamine]: under 50 nM.

For the molecule `CC(C)N(Cc1ccc2[nH]cnc2c1)c1nccc(Nc2cc(C3CC3)[nH]n2)n1` [II-26, N^2-((1H-Benzo[d]imidazol-5-yl)methyl)-N^4-(5-cyclopropyl-1H-pyrazol-3-yl)-N^2-isopropylpyrimidine-2,4-diamine], under setting [1], the inhibition constant Ki is under 50 nM. As to `Fc1cc(CNc2nccc(Nc3cc(C4CC4)[nH]n3)n2)c2nc[nH]c2c1` [II-27, N^4-(5-Cyclopropyl-1H-pyrazol-3-yl)-N^2-((6-fluoro-1H-benzo[d]imidazol-4-yl)methyl)-pyrimidine-2,4-diamine], the Ki under setting [1] lay within 50 to 250 nM. The same measure, in the same setting: the same measure for `Cc1cc(CNc2nccc(Nc3cc(C4CC4)[nH]n3)n2)c2nc[nH]c2c1` [II-28, N^4-(5-Cyclopropyl-1H-pyrazol-3-yl)-N^2-((6-methyl-1H-benzo[d]imidazol-4-yl)methyl)-pyrimidine-2,4-diamine]: 50 to 250 nM. With `COc1cc(Nc2ccnc(N(C)Cc3ccc4[nH]cnc4c3Cl)n2)n[nH]1` [II-29, N^2-((4-Chloro-1H-benzo[d]imidazol-5-yl)methyl)-N^4-(5-methoxy-1H-pyrazol-3-yl)-N^2-methylpyrimidine-2,4-diamine], the Ki under setting [1] is 50 to 250 nM.

As for `COc1n[nH]c2cccc(CN(C)c3nccc(Nc4cc(C5CC5)[nH]n4)n3)c12` [II-30, N^4-(5-cyclopropyl-1H-pyrazol-3-yl)-N^2-((3-methoxy-1H-indazol-4-yl)methyl)-N^2-methylpyrimidine-2,4-diamine], the Ki fell in the range of 50 to 250 nM.

With `Cc1cc2[nH]cnc2cc1[C@H](C)Nc1nccc(Nc2cc(C3CC3)[nH]n2)n1` [II-31, (S)-N^4-(5-Cyclopropyl-1H-pyrazol-3-yl)-N^2-(1-(6-methyl-1H-benzo[d]imidazol-5-yl)ethyl)pyrimidine-2,4-diamine], the Ki under setting [1] was in the range of 50 to 250 nM.

Regarding `Cc1nc2c(CNc3ncc(F)c(Nc4cc(C5CC5)[nH]n4)n3)cc(Cl)cc2[nH]1` [II-32, N^2-((6-Chloro-2-methyl-1H-benzo[d]imidazol-4-yl)methyl)-N^4-(5-cyclopropyl-1H-pyrazol-3-yl)-5-fluoropyrimidine-2,4-diamine], the Ki under setting [1] is 50 to 250 nM. Same read-out and setting: the same measure for `Cc1nc2c(CNc3nccc(Nc4cc(C5CC5)[nH]n4)n3)cc(F)cc2[nH]1` [II-34, N^4-(5-Cyclopropyl-1H-pyrazol-3-yl)-N^2-((6-fluoro-2-methyl-1H-benzo[d]imidazol-4-yl)-methyl)pyrimidine-2,4-diamine]: 50 to 250 nM; for `COCCN(Cc1ccc2[nH]cnc2c1)c1nccc(Nc2cc(C3CC3)[nH]n2)n1` [II-35, N^2-((1H-benzo[d]imidazol-5-yl)methyl)-N^4-(5-cyclopropyl-1H-pyrazol-3-yl)-N^2-(2-methoxyethyl)pyrimidine-2,4-diamine]: 50 to 250 nM.

As for `CN(Cc1ccc2[nH]cnc2c1Cl)c1nccc(Nc2cc(OCc3ccccn3)[nH]n2)n1` [II-36], the Ki under setting [1] fell in the range of 50 to 250 nM. The same measure, in the same setting: next, `C[C@H](Nc1nccc(Nc2cc(C3CC3)[nH]n2)n1)c1cc2nc[nH]c2cc1Cl` [II-38, (S)-N^2-(1-(6-Chloro-1H-benzo[d]imidazol-5-yl)ethyl)-N^4-(5-cyclopropyl-1H-pyrazol-3-yl)pyrimidine-2,4-diamine]: 50 to 250 nM; `CN(Cc1ccc2[nH]cnc2c1Cl)c1ncc(F)c(Nc2cc(C(F)(F)F)[nH]n2)n1` [II-39, N^2-((4-Chloro-1H-benzo[d]imidazol-5-yl)methyl)-5-fluoro-N^4-(5-(trifluoromethyl)-1H-pyrazol-3-yl)-N2-methylpyrimidine-2,4-diamine]: 50 to 250 nM; `C[C@H](Nc1nccc(Nc2cc(C3CC3)[nH]n2)n1)c1cc(F)cc2c1cnn2C` [II-40, (S)-N^4-(5-cyclopropyl-1H-pyrazol-3-yl)-N^2-(1-(6-fluoro-1-methyl-1H-indazol-4-yl)ethyl)pyrimidine-2,4-diamine]: 50 to 250 nM. In the case of `C[C@H](Nc1nccc(Nc2cc(C3CC3)[nH]n2)n1)c1cccc2[nH]cnc12` [II-41, (S)-N^2-(1-(1H-benzo[d]imidazol-4-yl)ethyl)-N^4-(5-cyclopropyl-1H-pyrazol-3-yl)pyrimidine-2,4-diamine], the Ki under setting [1] lay in the range of 50 to 250 nM.

For the molecule `CN(Cc1ccc2[nH]cnc2c1Cl)c1ncc(F)c(Nc2cc(C(C)(C)C)[nH]n2)n1` [II-42, N^4-(5-tert-Butyl-1H-pyrazol-3-yl)-N^2-((4-chloro-1H-benzo[d]imidazol-5-yl)methyl)-5-fluoro-N^2-methylpyrimidine-2,4-diamine], the Ki under setting [1] lay in the range of 50 to 250 nM. As to `Clc1c(CNc2nccc(Nc3cc(COC4CCC4)[nH]n3)n2)ccc2[nH]cnc12` [II-43, N^2-((4-Chloro-1H-benzo[d]imidazol-5-yl)methyl)-N^4-(5-(cyclobutoxymethyl)-1H-pyrazol-3-yl)pyrimidine-2,4-diamine], the Ki (GST-PAK1-KD Inhibition Assay - Example 65, read-out: PAK1 inhibition Ki) worked out at 284 nM and the Ki under setting [1] is 50 to 250 nM.

On to `Clc1cc(CNc2nccc(Nc3cc(C4CC4)[nH]n3)n2)c2nc[nH]c2c1` [II-44, N^2-((6-Chloro-1H-benzo[d]imidazol-4-yl)methyl)-N^4-(5-cyclopropyl-1H-pyrazol-3-yl)-pyrimidine-2,4-diamine], for which the Ki under setting [1] was under 50 nM.

`Cc1cc(Nc2ccnc(NCc3ccc4[nH]cnc4c3Cl)n2)n[nH]1` [II-46, N^2-((4-Chloro-1H-benzo[d]imidazol-5-yl)methyl)-N^4-(5-methyl-1H-pyrazol-3-yl)pyrimidine-2,4-diamine]: the Ki under setting [1] lay in the range of 50 to 250 nM.

Take `CNCCN(Cc1cc(F)cc2[nH]ncc12)c1nccc(Nc2cc(C3CC3)[nH]n2)n1` [II-47, N^4-(5-cyclopropyl-1H-pyrazol-3-yl)-N^2-((6-fluoro-1H-indazol-4-yl)methyl)-N^2-(2-(methylamino)ethyl)pyrimidine-2,4-diamine]: the Ki under setting [1] was under 50 nM. Still for that read-out and setting: the same measure for `CN(C)CCCN(Cc1cc(F)cc2[nH]ncc12)c1nccc(Nc2cc(C3CC3)[nH]n2)n1` [II-48, N^4-(5-cyclopropyl-1H-pyrazol-3-yl)-N^2-(3-(dimethylamino)propyl)-N^2-((6-fluoro-1H-indazol-4-yl)methyl)pyrimidine-2,4-diamine]: under 50 nM. As to `CN(Cc1ccc2[nH]cnc2c1Cl)c1nccc(Nc2cc([C@@H]3C[C@H]3F)[nH]n2)n1` [II-49, N^2-((4-chloro-1H-benzo[d]imidazol-5-yl)methyl)-N^4-(5-((1S,2R)-2-fluorocyclopropyl)-1H-pyrazol-3-yl)-N^2-methylpyrimidine-2,4-diamine], the Ki under setting [1] was under 50 nM. The same measure, in the same setting: next, `Clc1cc(CNc2nccc(Nc3cc(C4CC4)[nH]n3)n2)c2cn[nH]c2c1` [II-50, N^2-((6-chloro-1H-indazol-4-yl)methyl)-N^4-(5-cyclopropyl-1H-pyrazol-3-yl)pyrimidine-2,4-diamine]: under 50 nM.

Regarding `Fc1cc(CNc2nccc(Nc3cc(C4CC4)[nH]n3)n2)c2cn[nH]c2c1` [II-52, N^4-(5-cyclopropyl-1H-pyrazol-3-yl)-N^2-((6-fluoro-1H-indazol-4-yl)methyl)pyrimidine-2,4-diamine], under setting [1], the Ki was under 50 nM. Same read-out and setting: the same measure for `C[C@H](Nc1nccc(Nc2cc(C3CC3)[nH]n2)n1)c1cc(F)cc2[nH]ncc12` [II-53, (S)-N^4-(5-cyclopropyl-1H-pyrazol-3-yl)-N^2-(1-(6-fluoro-1H-indazol-4-yl)ethyl)pyrimidine-2,4-diamine]: under 50 nM; for `CN(Cc1ccc2[nH]cnc2c1Cl)c1nccc(Nc2cc([C@H]3CC3(F)F)[nH]n2)n1` [II-54, (R)-N^2-((4-chloro-1H-benzo[d]imidazol-5-yl)methyl)-N^4-(5-(2,2-difluorocyclopropyl)-1H-pyrazol-3-yl)-N^2-methylpyrimidine-2,4-diamine]: under 50 nM.
